This passage reports IC50 results from paper doi:10.1101/614586v1 (biorxiv, 2019).

Assay in all cases: malachite green phosphate ATPase assay
What all share (assay type): biochemical

The target of experiment [1] is T1, E. coli RecA (Escherichia coli, UniProt P0A7G6).
T1 sequence (P0A7G6 2-353): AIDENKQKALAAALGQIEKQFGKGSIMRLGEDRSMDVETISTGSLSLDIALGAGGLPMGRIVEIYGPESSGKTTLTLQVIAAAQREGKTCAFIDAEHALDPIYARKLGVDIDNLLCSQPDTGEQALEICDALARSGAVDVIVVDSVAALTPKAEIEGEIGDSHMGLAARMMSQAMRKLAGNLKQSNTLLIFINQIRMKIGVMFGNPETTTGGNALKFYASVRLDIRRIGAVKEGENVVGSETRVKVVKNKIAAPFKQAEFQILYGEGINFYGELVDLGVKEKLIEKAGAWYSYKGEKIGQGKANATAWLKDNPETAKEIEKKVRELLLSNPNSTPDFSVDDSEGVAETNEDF

Experiment [2] has as its target T2, S. cerevisiae Rdh54/Tid1 (Saccharomyces cerevisiae, UniProt P38086).
T2 sequence (P38086 35-958 limits assumed): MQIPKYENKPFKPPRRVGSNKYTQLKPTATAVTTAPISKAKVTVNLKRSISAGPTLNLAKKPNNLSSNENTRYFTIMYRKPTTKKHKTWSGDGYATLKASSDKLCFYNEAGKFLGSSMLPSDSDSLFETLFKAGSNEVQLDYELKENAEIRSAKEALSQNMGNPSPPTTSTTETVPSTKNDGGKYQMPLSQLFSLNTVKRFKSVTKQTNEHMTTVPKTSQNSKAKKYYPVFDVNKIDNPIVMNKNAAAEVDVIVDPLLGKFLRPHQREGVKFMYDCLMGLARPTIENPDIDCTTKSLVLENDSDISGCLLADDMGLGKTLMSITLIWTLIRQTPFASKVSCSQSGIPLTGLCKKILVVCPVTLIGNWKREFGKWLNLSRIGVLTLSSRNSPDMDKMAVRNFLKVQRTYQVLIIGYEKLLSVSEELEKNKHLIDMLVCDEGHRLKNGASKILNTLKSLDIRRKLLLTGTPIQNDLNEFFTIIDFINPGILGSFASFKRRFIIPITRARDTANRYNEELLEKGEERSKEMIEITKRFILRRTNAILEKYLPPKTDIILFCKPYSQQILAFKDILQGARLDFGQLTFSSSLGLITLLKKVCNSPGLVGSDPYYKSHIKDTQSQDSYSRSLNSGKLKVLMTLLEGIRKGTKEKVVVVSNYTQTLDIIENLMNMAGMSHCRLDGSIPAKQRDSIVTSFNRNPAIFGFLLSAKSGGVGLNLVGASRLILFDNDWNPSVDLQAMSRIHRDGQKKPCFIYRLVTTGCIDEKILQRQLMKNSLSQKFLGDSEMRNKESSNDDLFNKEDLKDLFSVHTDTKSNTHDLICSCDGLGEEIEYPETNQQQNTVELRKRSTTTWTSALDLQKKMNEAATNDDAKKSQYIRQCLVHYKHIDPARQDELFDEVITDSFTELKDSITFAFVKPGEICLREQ

For experiment [3], the target named is T3, H. sapiens SMARCAL1 (Homo sapiens, UniProt Q9NZC9).
T3 sequence (Q9NZC9 2-954): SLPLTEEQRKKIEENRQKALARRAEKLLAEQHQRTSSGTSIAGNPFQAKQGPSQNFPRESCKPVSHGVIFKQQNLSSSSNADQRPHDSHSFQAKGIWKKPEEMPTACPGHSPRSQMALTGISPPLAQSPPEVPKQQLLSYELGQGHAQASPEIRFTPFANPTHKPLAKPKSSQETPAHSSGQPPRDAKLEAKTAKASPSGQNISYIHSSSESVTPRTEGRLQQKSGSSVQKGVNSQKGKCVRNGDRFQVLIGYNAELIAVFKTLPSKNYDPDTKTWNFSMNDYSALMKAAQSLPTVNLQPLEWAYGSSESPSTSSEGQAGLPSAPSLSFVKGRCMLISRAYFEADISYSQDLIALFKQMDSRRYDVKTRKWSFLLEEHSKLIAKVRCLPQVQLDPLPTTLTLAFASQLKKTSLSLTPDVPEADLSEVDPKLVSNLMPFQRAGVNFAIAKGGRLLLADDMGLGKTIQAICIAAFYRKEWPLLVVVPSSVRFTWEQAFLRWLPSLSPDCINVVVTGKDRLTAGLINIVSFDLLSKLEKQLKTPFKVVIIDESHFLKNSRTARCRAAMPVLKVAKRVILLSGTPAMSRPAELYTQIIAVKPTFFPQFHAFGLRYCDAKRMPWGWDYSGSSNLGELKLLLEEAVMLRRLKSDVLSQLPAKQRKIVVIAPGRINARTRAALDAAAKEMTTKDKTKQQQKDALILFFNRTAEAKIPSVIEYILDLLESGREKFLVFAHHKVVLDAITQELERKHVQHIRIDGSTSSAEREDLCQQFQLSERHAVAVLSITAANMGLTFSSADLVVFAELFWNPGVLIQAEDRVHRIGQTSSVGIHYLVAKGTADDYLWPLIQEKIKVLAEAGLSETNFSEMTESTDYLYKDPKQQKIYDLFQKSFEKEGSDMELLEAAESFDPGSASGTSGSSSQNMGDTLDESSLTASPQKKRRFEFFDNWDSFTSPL

For orientation: IC50 means the midpoint of a concentration-inhibition curve. Low readings indicate greater potency in that assay, high ones weaker potency in that assay. For the compound `CN(C)CCCNCC(O)Cn1c2ccc(Cl)cc2c2cc(Cl)ccc21` (stereo not drawn) [54i-1], the IC50 in experiment [1] was 0.79 ± 0.05 µM; in experiment [2], 43.2 ± 2.9 µM; in experiment [3], 5.7 ± 0.6 µM.
